Consider 20 substances from patent US8188059B2, “Compounds and methods for modulating expression of GCGR” (Isis Pharmaceuticals, Inc., priority 2006, dated 2012).

Strand notation (5' to 3'): a small letter for the sugar, then the base; units joined by * are phosphorothioate-linked, units joined directly phosphodiester-linked; [ ] holds rarer units or linkages, { } end groups; capitals alone tell only the bases. e = 2'-O-(2-methoxyethyl) (MOE); [5mC] = 5-methylcytosine; d = 2'-deoxy (DNA)

The test system of one data set is SGLT2 mRNA. Description: SGLT2 mRNA levels in kidney of Balb/c mice, twenty 1-10-1 MOE gapmers at 350 nmol/kg, PPS 534 and PPS 553 (Example 18, Table 74). The format is in vivo, mouse. Particulars: 350 nmol/kg i.p. twice per week for two weeks. How it is done: Twenty 1-10-1 MOE gapmers that are complementary to human/monkey/mouse/rat SGLT2 were designed, synthesized and tested in vivo for suppression of SGLT2 mRNA levels in kidney. Data are averages from two experiments in which male 6-week old Balb/c mice were administered intraperitoneal injections of 350 nmol/kg of oligonucleotide, twice per week, over a period of two weeks (a total of four injections). Mice were sacrificed 48 hours following the last administration and evaluated for SGLT2 mRNA levels in kidney. SGLT2 mRNA levels were determined by quantitative real-time PCR analysis according to standard procedures, using two different PCR primer probe sets, primer probe set (PPS) 534 and PPS 553. SGLT2 mRNA levels were normalized to cyclophilin mRNA levels, which were also measured by quantitative real-time PCR.

Data set [1] relates to PCSK9 mRNA. Kind of data set: Dose-dependent inhibition of PCSK9 in Hep3B cells with EC50 (Example 19, Table 76). The format is cell-based, human. The procedure:
Short antisense compounds targeted to a PCSK9 nucleic acid were tested in a dose response experiment Hep3B cells. After the treatment period, RNA was isolated from the cells and PCSK9 mRNA levels were measured by quantitative real-time PCR, as described herein. PCSK9 mRNA levels were normalized to cyclophilin mRNA levels, as measured by real-time PCR using a cyclophilin-specific primer probe set. Results are presented as percent inhibition of PCSK9, relative to untreated control cells. […] As illustrated in the following table, PCSK9 mRNA levels were reduced in a dose-dependent manner.

Data set [2] relates to PCSK9 mRNA. The class given is cell-based, human. Particulars: Hep3B cells, 100 nM, relative to untreated control cells; for % Inhib (PCSK9 mRNA): 0 = no reduction observed.

In the case of “370717 (antisense eT*dA*dG*d[5mC]*d[5mC]*dA*d[5mC]*d[5mC]*dA*dA*d[5mC]*eT) [compound 370717]”, the “SGLT2 mRNA in kidney, % change relative to saline” value with SGLT2 mRNA (primer probe set 534) was −84.4%; with SGLT2 mRNA (primer probe set 553) it was −84.3%.

“379684 (antisense eT*dG*dT*d[5mC]*dA*dG*d[5mC]*dA*dG*dG*dA*eT) [compound 379684]”: the figures for the “SGLT2 mRNA in kidney, % change relative to saline” value in the data set with SGLT2 mRNA (primer probe set 534) and with SGLT2 mRNA (primer probe set 553) were −45.0% and −43.2%, respectively.

“379685 (antisense eT*dG*dA*d[5mC]*d[5mC]*dA*dG*d[5mC]*dA*dG*dG*eA) [compound 379685]”: the results for the “SGLT2 mRNA in kidney, % change relative to saline” value with SGLT2 mRNA (primer probe set 534) and in the data set with SGLT2 mRNA (primer probe set 553) were −10.3% and −20.5%, respectively.

As for “379686 (antisense eA*d[5mC]*d[5mC]*dA*d[5mC]*dA*dA*dG*d[5mC]*d[5mC]*dA*eA) [compound 379686]”, the “SGLT2 mRNA in kidney, % change relative to saline” value in the data set on SGLT2 mRNA (primer probe set 534) is given as −71.9%; in the data set on SGLT2 mRNA (primer probe set 553), −75.1%.

With “379687 (antisense eG*dA*dT*dG*dT*dT*dG*d[5mC]*dT*dG*dG*e[5mC]) [compound 379687]”, the “SGLT2 mRNA in kidney, % change relative to saline” value in the data set with SGLT2 mRNA (primer probe set 534) was −47.1%; in the data set on SGLT2 mRNA (primer probe set 553), −52.1%.

For “379688 (antisense e[5mC]*d[5mC]*dA*dA*dG*d[5mC]*d[5mC]*dA*d[5mC]*dT*dT*eG) [compound 379688]”, the “SGLT2 mRNA in kidney, % change relative to saline” value in the data set on SGLT2 mRNA (primer probe set 534) is given as −62.6%; in the data set on SGLT2 mRNA (primer probe set 553), −70.4%.

As for “379689 (antisense eA*dG*dA*dG*d[5mC]*dG*d[5mC]*dA*dT*dT*d[5mC]*e[5mC]) [compound 379689]”, the “SGLT2 mRNA in kidney, % change relative to saline” value in the data set on SGLT2 mRNA (primer probe set 534) is listed as −17.5%; with SGLT2 mRNA (primer probe set 553) it was −30.4%.

Turning to “379690 (antisense eA*d[5mC]*dA*dG*dG*dT*dA*dG*dA*dG*dG*e[5mC]) [compound 379690]”, the “SGLT2 mRNA in kidney, % change relative to saline” value is −18.9% in the data set with SGLT2 mRNA (primer probe set 534) and −22.5% in the data set with SGLT2 mRNA (primer probe set 553).

Regarding “379691 (antisense eA*dG*dA*dT*d[5mC]*dT*dT*dG*dG*dT*dG*eA) [compound 379691]”, the “SGLT2 mRNA in kidney, % change relative to saline” value in the data set on SGLT2 mRNA (primer probe set 534) was −35.0%; with SGLT2 mRNA (primer probe set 553), −48.6%.

“379692 (antisense eT*dG*dT*dT*d[5mC]*d[5mC]*dA*dG*d[5mC]*d[5mC]*d[5mC]*eA) [compound 379692]”: the “SGLT2 mRNA in kidney, % change relative to saline” value in the data set on SGLT2 mRNA (primer probe set 534) is reported as −88.1%; in the data set on SGLT2 mRNA (primer probe set 553) it was −88.5%.

For the substance “379693 (antisense e[5mC]*dA*dT*dG*dG*dT*dG*dA*dT*dG*d[5mC]*e[5mC]) [compound 379693]”, the “SGLT2 mRNA in kidney, % change relative to saline” value is −51.6% in the data set with SGLT2 mRNA (primer probe set 534) and −59.9% in the data set with SGLT2 mRNA (primer probe set 553).

With “379694 (antisense eG*dA*d[5mC]*dG*dA*dA*dG*dG*dT*d[5mC]*dT*eG) [compound 379694]”, the “SGLT2 mRNA in kidney, % change relative to saline” value is −42.1% in the data set on SGLT2 mRNA (primer probe set 534) and −54.4% with SGLT2 mRNA (primer probe set 553).

Regarding “400307 (e[5mC]*eG*dG*d[5mC]*d[5mC]*dG*d[5mC]*dT*dG*dA*d[5mC]*d[5mC]*eA*e[5mC]; antisense) [compound 400307]”, the “% Inhibition of PCSK9” value in the data set on PCSK9 mRNA [1] (5 nM) is 35%; with PCSK9 mRNA [1] (10 nM) it was 39%; in the data set on PCSK9 mRNA [1] (20 nM), 45%; with PCSK9 mRNA [1] (40 nM) it was 56%; with PCSK9 mRNA [1] (80 nM) it was 92%; in the data set with PCSK9 mRNA [1] (160 nM), 93%. The “% Inhibition Range (PCSK9 mRNA)” value in the data set on PCSK9 mRNA [2] is listed as 70-80%. For the same substance, the “% Inhib (PCSK9 mRNA)” value in the data set on PCSK9 mRNA [2] is given as 76%.

Regarding “400308 (e[5mC]*e[5mC]*dG*dG*d[5mC]*d[5mC]*dG*d[5mC]*dT*dG*dA*d[5mC]*e[5mC]*eA; antisense) [compound 400308]”, the “% Inhibition of PCSK9” value is listed as 31% with PCSK9 mRNA [1] (5 nM); 10% with PCSK9 mRNA [1] (10 nM); 26% in the data set on PCSK9 mRNA [1] (20 nM); 40% in the data set with PCSK9 mRNA [1] (40 nM); 77% in the data set with PCSK9 mRNA [1] (80 nM); 86% in the data set on PCSK9 mRNA [1] (160 nM). Also, the “% Inhibition Range (PCSK9 mRNA)” value with PCSK9 mRNA [2] was 50-60%. Also, the “% Inhib (PCSK9 mRNA)” value in the data set on PCSK9 mRNA [2] is 55%.

For the substance “400309 (e[5mC]*e[5mC]*d[5mC]*dG*dG*d[5mC]*d[5mC]*dG*d[5mC]*dT*dG*dA*e[5mC]*e[5mC]; antisense) [compound 400309]”, the “% Inhibition of PCSK9” value in the data set on PCSK9 mRNA [1] (5 nM) is listed as 49%; with PCSK9 mRNA [1] (10 nM) it was 23%; in the data set with PCSK9 mRNA [1] (20 nM) it was 38%; in the data set with PCSK9 mRNA [1] (40 nM), 12%; in the data set with PCSK9 mRNA [1] (80 nM), 72%; in the data set with PCSK9 mRNA [1] (160 nM), 78%. In addition, the “% Inhibition Range (PCSK9 mRNA)” value in the data set with PCSK9 mRNA [2] was 40-50%. For the same substance, in the data set on PCSK9 mRNA [2], the “% Inhib (PCSK9 mRNA)” value is 44%.

In the case of “400327 (eG*eT*d[5mC]*d[5mC]*d[5mC]*d[5mC]*dA*dA*dA*dG*dT*d[5mC]*e[5mC]*e[5mC]; antisense) [compound 400327]”, the “% Inhibition of PCSK9” value in the data set on PCSK9 mRNA [1] (5 nM) is on record as 5%; with PCSK9 mRNA [1] (10 nM), 37%; in the data set on PCSK9 mRNA [1] (20 nM), 23%; with PCSK9 mRNA [1] (40 nM), 49%; in the data set on PCSK9 mRNA [1] (80 nM), 43%; with PCSK9 mRNA [1] (160 nM), 55%. Moreover, in the data set on PCSK9 mRNA [2], the “% Inhibition Range (PCSK9 mRNA)” value is 30-40%. In the data set with PCSK9 mRNA [2], the “% Inhib (PCSK9 mRNA)” value was determined as 36%.

As for “400330 (e[5mC]*e[5mC]*dA*d[5mC]*dG*dT*dG*dG*dG*d[5mC]*dA*dG*e[5mC]*eA; antisense) [compound 400330]”, the “% Inhibition of PCSK9” value in the data set with PCSK9 mRNA [1] (5 nM) was 8%; with PCSK9 mRNA [1] (10 nM) it was 32%; with PCSK9 mRNA [1] (20 nM), 40%; in the data set on PCSK9 mRNA [1] (40 nM) it was 69%; with PCSK9 mRNA [1] (80 nM), 82%; with PCSK9 mRNA [1] (160 nM) it was 71%. The “% Inhibition Range (PCSK9 mRNA)” value with PCSK9 mRNA [2] was 40-50%. Besides, the “% Inhib (PCSK9 mRNA)” value with PCSK9 mRNA [2] worked out at 43%.

As to “400331 (eG*e[5mC]*d[5mC]*dA*d[5mC]*dG*dT*dG*dG*dG*d[5mC]*dA*eG*e[5mC]; antisense) [compound 400331]”, the “% Inhibition of PCSK9” value is reported as 29% with PCSK9 mRNA [1] (5 nM); 40% in the data set with PCSK9 mRNA [1] (10 nM); 47% with PCSK9 mRNA [1] (20 nM); 63% in the data set with PCSK9 mRNA [1] (40 nM); 75% with PCSK9 mRNA [1] (80 nM); 82% in the data set with PCSK9 mRNA [1] (160 nM). Moreover, in the data set with PCSK9 mRNA [2], the “% Inhibition Range (PCSK9 mRNA)” value is 30-40%. For the same substance, in the data set on PCSK9 mRNA [2], the “% Inhib (PCSK9 mRNA)” value is given as 35%.

For the substance “400352 (antisense e[5mC]*eA*d[5mC]*d[5mC]*d[5mC]*dT*d[5mC]*dA*d[5mC]*d[5mC]*d[5mC]*d[5mC]*e[5mC]*eA) [compound 400352]”, the “% Inhibition of PCSK9” value was 7% in the data set with PCSK9 mRNA [1] (5 nM); 16% in the data set on PCSK9 mRNA [1] (10 nM); 40% in the data set on PCSK9 mRNA [1] (20 nM); 44% in the data set with PCSK9 mRNA [1] (40 nM); 63% in the data set with PCSK9 mRNA [1] (80 nM); 64% with PCSK9 mRNA [1] (160 nM). For the same substance, the “% Inhibition Range (PCSK9 mRNA)” value with PCSK9 mRNA [2] is given as 20-30%. The “% Inhib (PCSK9 mRNA)” value in the data set with PCSK9 mRNA [2] is 29%.

Consider “400353 (antisense eA*e[5mC]*dA*d[5mC]*d[5mC]*d[5mC]*dT*d[5mC]*dA*d[5mC]*d[5mC]*d[5mC]*e[5mC]*e[5mC]) [compound 400353]”, for which the “% Inhibition of PCSK9” value in the data set on PCSK9 mRNA [1] (5 nM) is recorded as 15%; with PCSK9 mRNA [1] (10 nM), 27%; in the data set on PCSK9 mRNA [1] (20 nM), 23%; in the data set on PCSK9 mRNA [1] (40 nM), 43%; in the data set on PCSK9 mRNA [1] (80 nM), 54%; in the data set on PCSK9 mRNA [1] (160 nM) it was 48%. The “% Inhibition Range (PCSK9 mRNA)” value in the data set with PCSK9 mRNA [2] is on record as 10-20%. Besides, the “% Inhib (PCSK9 mRNA)” value in the data set on PCSK9 mRNA [2] stood at 19%.
